What was measured:
[1] = biological target: T1, human NPFFR1 (hNPFFR1) receptor (Homo sapiens, UniProt Q9GZQ6); test: Human NPFFR1 evaluation using BRET biosensors (antagonist IC50); type: cell-based; conditions: hNPFFR1 transiently over-expressed in HEK-293 T cells; BRET signal; stimulation by EC80 RFRP-3
T1 construct: expressed in transfected cells; host or cells: HEK-293 T cells, transient co-transfection with polyethylenimine
How it was run: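 HEK-293T cells co-transfected with receptor, GαoB and Gi-effector BRET biosensor pair, assayed 48 h later. Compound 10 min, then EC80 RFRP-3 with 10 min luminescence read; IC50 from 20-concentration variable-slope fit, duplicate, two independent experiments.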

T1 sequence (Q9GZQ6 whole entry): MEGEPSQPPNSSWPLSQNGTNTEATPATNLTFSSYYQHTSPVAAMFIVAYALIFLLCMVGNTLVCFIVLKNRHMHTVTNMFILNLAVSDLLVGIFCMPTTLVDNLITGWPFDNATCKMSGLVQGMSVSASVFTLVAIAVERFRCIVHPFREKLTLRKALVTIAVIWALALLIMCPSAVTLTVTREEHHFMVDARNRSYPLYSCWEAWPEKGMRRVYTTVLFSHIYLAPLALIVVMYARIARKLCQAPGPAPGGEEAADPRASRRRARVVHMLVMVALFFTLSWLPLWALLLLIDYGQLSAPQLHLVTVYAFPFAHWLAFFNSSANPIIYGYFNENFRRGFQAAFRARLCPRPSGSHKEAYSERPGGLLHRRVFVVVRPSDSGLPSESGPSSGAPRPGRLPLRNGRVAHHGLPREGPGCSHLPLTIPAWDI

melting point [°C]	IC50 [1] [nM]	Structure (SMILES)
> 250	100 to 1000	CCc1nc(N)ccc1-c1c(F)cc(F)c2ccc(=O)[nH]c12.Cl [Example 159, 8-(6-amino-2-ethylpyridin-3-yl)-5,7-difluoroquinolin-2(1H)-one]
> 250	100 to 1000	CCc1nc(N)ccc1-c1c(F)c(F)cc2ccc(O)nc12.Cl [Example 161, 8-(6-amino-2-ethylpyridin-3-yl)-6,7-difluoroquinolin-2(1H)-one]
> 250	100 to 1000	CCc1nc(N)ccc1-c1cccc2c1N(C)CC2.Cl [Example 162, 6-ethyl-5-(1-methylindolin-7-yl)pyridin-2-amine]
> 250	100 to 1000	CCc1nc(N)ccc1-c1cccc2c1NC(=O)C2.Cl [Example 163, 7-(6-amino-2-ethylpyridin-3-yl)indolin-2-one]
175 to 183	100 to 1000	CCc1nc(N)ccc1-c1cccc2c1NCC2.Cl [Example 164, 6-ethyl-5-(indolin-7-yl)pyridin-2-amine]
155 to 165	100 to 1000	CCc1nc(N)ccc1-c1cccc2c1N(C)CCC2.Cl [Example 165, 6-ethyl-5-(1-methyl-1,2,3,4-tetrahydroquinolin-8-yl)pyridin-2-amine]
130 to 135	< 100	CCc1nc(N)ccc1-c1cccc2ccc(C(=O)N3CCOCC3)nc12.Cl [Example 166, (8-(6-amino-2-ethylpyridin-3-yl)quinolin-2-yl)(morpholino)methanone]
120 to 131	< 100	CCc1nc(N)ccc1-c1cccc2ccc(C(=O)N3CCCOCC3)nc12.Cl [Example 167, (8-(6-amino-2-ethylpyridin-3-yl)quinolin-2-yl)(1,4-oxazepan-4-yl)methanone]
142 to 148	< 100	CCc1nc(N)ccc1-c1cccc2ccc(C(=O)N(CC)C3CCCCC3)nc12.Cl [Example 168, 8-(6-amino-2-ethylpyridin-3-yl)-N-cyclohexyl-N-ethylquinoline-2-carboxamide]
140 to 144	< 100	CCc1nc(N)ccc1-c1cccc2ccc(C(=O)N3CCCCCC3)nc12.Cl [Example 169, (8-(6-amino-2-ethylpyridin-3-yl)quinolin-2-yl)(azepan-1-yl)methanone]
121 to 125	< 100	CCc1nc(N)ccc1-c1cccc2ccc(C(=O)N(CC)C(C)C)nc12.Cl [Example 170, 8-(6-amino-2-ethylpyridin-3-yl)-N-ethyl-N-isopropylquinoline-2-carboxamide]
150 to 160	< 100	CCc1nc(N)ccc1-c1cccc2ccc(C(=O)N3CC4CCC(C3)O4)nc12.Cl [Example 171, (8-(6-amino-2-ethylpyridin-3-yl)quinolin-2-yl)(8-oxa-3-azabicyclo[3.2.1]octan-3-yl)methanone]
> 250	100 to 1000	CCc1nc(N)ccc1-c1cccc2ccc(C(=O)N3CCC(c4ccccc4)CC3)nc12.Cl [Example 172, (8-(6-amino-2-ethylpyridin-3-yl)quinolin-2-yl)(4-phenylpiperidin-1-yl)methanone]
112 to 125	< 100	CCc1nc(N)ccc1-c1cccc2ccc(C(=O)NC3CCOCC3)nc12.Cl [Example 173, 8-(6-amino-2-ethylpyridin-3-yl)-N-(tetrahydro-2H-pyran-4-yl)quinoline-2-carboxamide]
102 to 114	< 100	CCc1nc(N)ccc1-c1cccc2ccc(C(=O)NCc3ccccc3)nc12.Cl [Example 174, 8-(6-amino-2-ethylpyridin-3-yl)-N-benzylquinoline-2-carboxamide]
85 to 95	< 100	CCc1nc(N)ccc1-c1c(F)ccc2c1OCCC2.Cl [Example 176, 6-ethyl-5-(7-fluorochroman-8-yl)pyridin-2-amine]
80 to 90	< 100	CCc1nc(N)ccc1-c1c(F)ccc2c1OC(C)(C)CC2.Cl [Example 177, 6-ethyl-5-(7-fluoro-2,2-dimethylchroman-8-yl)pyridin-2-amine]
43 to 52	< 100	CCc1nc(N)ccc1-c1c(F)ccc2c1OCC=CC2.Cl [Example 178, 6-ethyl-5-(8-fluoro-2,5-dihydrobenzo[b]oxepin-9-yl)pyridin-2-amine]
47 to 65	< 100	CCc1nc(N)ccc1-c1c(F)ccc2c1OCCCC2.Cl [Example 179, 6-ethyl-5-(8-fluoro-2,3,4,5-tetrahydrobenzo[b]oxepin-9-yl)pyridin-2-amine]

Further lines, the compound ahead of its results:

Structure (SMILES)	melting point [°C]	IC50 [1] [nM]
CCc1nc(N)ccc1-c1cccc2ccc(N3CCOCC3)nc12.Cl [Example 129, 6-ethyl-5-(2-morpholinoquinolin-8-yl)pyridin-2-amine]	100 to 150	< 100
CCc1nc(N)ccc1-c1cccc2ccc(N3CCCC3)nc12.Cl [Example 131, 6-ethyl-5-(2-(pyrrolidin-1-yl)quinolin-8-yl)pyridin-2-amine]	> 250	100 to 1000
CCc1nc(N)ccc1-c1cccc2ccc(N3CCC(F)(F)CC3)nc12.Cl [Example 132, 5-(2-(4,4-difluoropiperidin-1-yl)quinolin-8-yl)-6-ethylpyridin-2-amine]	120 to 141	< 100
CCc1nc(N)ccc1-c1cccc2ccc(N3CCCOCC3)nc12.Cl [Example 133, 5-(2-(1,4-oxazepan-4-yl)quinolin-8-yl)-6-ethylpyridin-2-amine]	50 to 90	< 100
CCc1nc(N)ccc1-c1c(F)ccc2ccc(N3CCCOCC3)nc12.Cl [Example 134, 6-ethyl-5-(7-fluoro-2-(1,4-oxazepan-4-yl)quinolin-8-yl)pyridin-2-amine]	100 to 150	< 100
CCc1nc(N)ccc1-c1c(F)ccc2ccc(N3CCOCC3)nc12.Cl [Example 135, 6-ethyl-5-(7-fluoro-2-morpholinoquinolin-8-yl)pyridin-2-amine]	100 to 146	< 100
CCc1nc(N)ccc1-c1c(F)ccc2ccc(N3CC4CCC(C3)O4)nc12.Cl [Example 136, 5-(2-(8-oxa-3-azabicyclo[3.2.1]octan-3-yl)-7-fluoroquinolin-8-yl)-6-ethylpyridin-2-amine]	140 to 172	< 100
CCc1nc(N)ccc1-c1c(F)ccc2ccc(N3CCCCCC3)nc12.Cl [Example 137, 5-(2-(azepan-1-yl)-7-fluoroquinolin-8-yl)-6-ethylpyridin-2-amine]	110 to 145	< 100
CCc1nc(N)ccc1-c1cccc2ccc(C(=O)N3CCCC3)nc12.Cl [Example 141, (8-(6-amino-2-ethylpyridin-3-yl)quinolin-2-yl)(pyrrolidin-1-yl)methanone]	100 to 125	< 100
CCc1nc(N)ccc1-c1cccc2ccc(COC)nc12.Cl [Example 142, 6-ethyl-5-(2-(methoxymethyl)quinolin-8-yl)pyridin-2-amine]	210 to 225	< 100
CCc1nc(N)ccc1-c1c(F)cc(F)c2cc(F)cnc12.Cl [Example 145, 6-ethyl-5-(3,5,7-trifluoroquinolin-8-yl)pyridin-2-amine]	110 to 120	< 100
CCc1nc(N)ccc1-c1c(F)c(F)cc2cc(F)cnc12.Cl [Example 150, 6-ethyl-5-(3,6,7-trifluoroquinolin-8-yl)pyridin-2-amine]	120 to 130	< 100
CCc1nc(N)ccc1-c1c(C(N)=O)ccc2cccnc12.Cl [Example 152, 8-(6-amino-2-ethylpyridin-3-yl)quinoline-7-carboxamide]	150 to 164	> 1000
CCc1nc(N)ccc1-c1cccc2ccc(=O)[nH]c12.Cl [Example 154, 8-(6-amino-2-ethylpyridin-3-yl)quinolin-2(1H)-one]	> 250	100 to 1000
CCc1nc(N)ccc1-c1cccc2c1NC(=O)CC2.Cl [Example 155, 8-(6-amino-2-ethylpyridin-3-yl)-3,4-dihydroquinolin-2(1H)-one]	233 to 237	100 to 1000
CCc1nc(N)ccc1-c1cccc2ccc(=O)n(C)c12.Cl [Example 156, 8-(6-amino-2-ethylpyridin-3-yl)-1-methylquinolin-2(1H)-one]	132 to 145	> 1000
CCc1nc(N)ccc1-c1c(F)ccc2ccc(=O)[nH]c12.Cl [Example 158, 8-(6-amino-2-ethylpyridin-3-yl)-7-fluoroquinolin-2(1H)-one]	172 to 208	100 to 1000

— patent US20220298135A1, “5-HETEROARYL-PYRIDIN-2-AMINE COMPOUNDS AS NEUROPEPTIDE FF RECEPTOR ANTAGONISTS” (Domain Therapeutics, priority 2019, published 2022)
